Assay results from publication PMC8591608, “DNDI-6148: A Novel Benzoxaborole Preclinical Candidate for the Treatment of Visceral Leishmaniasis” (Journal of Medicinal Chemistry, 2021).
Like-named read-outs stand apart in the source and are kept apart here.

Assays:
MRC5 cytotoxicity assay = format: cell-based; details: human, MRC5SV2 cells (human embryonic lung fibroblasts), geometric mean of at least two independent tests
Experimental: (§1) Primary peritoneal mouse macrophages (PMM) were collected two days after peritoneal stimulation with a 2% potato starch suspension. MRC5SV2 cells (diploid human embryonic lung fibroblasts) were cultured in minimal essential medium (MEM) containing Earle’s salts, supplemented with L-glutamine, NaHCO3, and 5% inactivated fetal calf serum. All cultures and assays were conducted at 37 °C under an atmosphere of 5% CO2.
(§2) Assays were performed in sterile 96-well microtiter plates, each well containing 10 μL of the compound dilution and 190 μL of MRC5SV2 or PMM inoculum (3 × 10^4 cells/mL). Cell growth was compared to untreated controls (100% growth) and assay-media controls (0% growth). After three-day incubation, cell viability was assessed fluorometrically by adding resazurin (50 μL/well of a stock solution in phosphate buffer (50 μg/mL)), incubating for 4 h and measuring fluorescence (λex 550 nm, λem 590 nm). The results were expressed as a percentage reduction in cell growth compared to untreated control wells. […] Tamoxifen was included as the reference drug.

PMM cytotoxicity assay = format: cell-based; details: mouse, primary peritoneal mouse macrophages (PMM), geometric mean of at least two independent tests
Experimental: as §1, §2

[1] = Liver microsome stability, hamster; format: in vitro ADME; details: golden (Syrian), hamster liver microsomes, pH 7.4, Table 4, read-out: HamLM Clint
Experimental: (§3) Tests were performed by WuXi AppTec, China. Test compounds (at 1 μM) or positive controls (testosterone, propafenone, and diclofenac) were incubated at 37 °C with liver microsomes from Balb/c mouse, golden (Syrian) hamster, Sprague-Dawley rat, Beagle dog, or human in the presence of a NADPH regenerating system and phosphate buffer (100 mM, pH 7.4) at 0.4 or 0.8 mg/mL microsomal protein. The samples were removed at time intervals from 0 to 60, 90, or 120 min and immediately mixed with cold methanol supplemented or not with acid (3% formic acid) and centrifuged prior to analysis by LC-MS/MS using tolbutamide or propranolol as internal standards.

[2] = Liver microsome stability, human; format: in vitro ADME; details: human liver microsomes
Experimental: as §3

L. infantum = assay: Intramacrophage L. infantum assay; format: cell-based; details: Leishmania infantum, geometric mean of at least two independent tests
Experimental: L. infantum (MHOM/MA/67/ITMAP263) and L. donovani (MHOM/ET/67/L82) were maintained in the golden (Syrian) hamster (Mesocricetus auratus). Ex vivo amastigotes were collected from the spleen of an infected donor hamster using two centrifugation purification steps: 230g for 10 min, keeping the supernatant layer, and 4100g for 30 min, keeping the pellet. The spleen parasite burden was assessed using the Stauber technique.[25] For in vitro assays, the inoculum was prepared in RPMI-1640 medium, supplemented with 200 mM L-glutamine, 16.5 mM NaHCO3, and 5% inactivated fetal calf serum. For the in vivo model, an infection inoculum containing 2 × 10^7 amastigotes/100 μL was prepared in phosphate-buffered saline (PBS).
The assay was performed in sterile 96-well microtiter plates, each well containing 10 μL of the compound dilution and 190 μL of the PMM/amastigote inoculum (3 × 10^4 cells/4.5 × 10^5 parasites per well). Parasite multiplication was compared to untreated infected controls (100% growth) and uninfected controls (0% growth). After five-day incubation, total parasite burdens were microscopically assessed after staining the cells with a 10% Giemsa solution. The results were expressed as a percentage reduction in parasite burden compared to untreated control wells. EC50 values were determined using an extended dose range (2-fold compound dilutions, 8-point concentration curve). Miltefosine was used as the reference drug.[26] For selected compounds, this assay format was also run using the L. donovani inoculum.

[3] = pH 7.4, Table 4, read-out: HLM Clint
[4] = Table 4, read-out: intramacrophage L. infantum EC50
[5] = Table 5, read-out: intramacrophage L. infantum amastigote EC50

O=C(Nc1ccc2c(c1)B(O)OC2)c1cn(C(F)(F)F)nc1C(F)(F)F [Compound 4, N-(1-Hydroxy-1,3-dihydrobenzo[c][1,2]oxaborol-6-yl)-1,3-bis(trifluoromethyl)-1H-pyrazole-4-carboxamide]
CC50 at 3 days (MRC5 cytotoxicity assay; Table 4): > 64 µM
CC50 at 3 days (PMM cytotoxicity assay; Table 4): > 64 µM
microsomal CLint at 2 h, 1 µM [1]: 1040 µL/min/mg
microsomal CLint at 1 μM [2, 3]: < 11.9 µL/min/mg
EC50 (L. infantum; [4]): 2.1 µM

O=C(Nc1ccc2c(c1)B(O)OC2)c1cn(CCC(F)(F)F)nc1C(F)(F)F [Compound 6, N-(1-Hydroxy-1,3-dihydrobenzo[c][1,2]oxaborol-6-yl)-3-(trifluoromethyl)-1-(3,3,3-trifluoropropyl)-1H-pyrazole-4-carboxamide]
CC50 at 72 h (MRC5 cytotoxicity assay; Table 4): 49 µM
CC50 at 72 h (PMM cytotoxicity assay; Table 4): 38 µM
microsomal CLint at 2 h, 1 µM [1]: 114 µL/min/mg
microsomal CLint at 1 μM [2, 3]: < 11.9 µL/min/mg
EC50 (L. infantum; [4]): 1.3 µM

Cc1nn(CCC(F)(F)F)cc1C(=O)Nc1ccc2c(c1)B(O)OC2 [Compound 7, N-(1-Hydroxy-1,3-dihydrobenzo[c][1,2]oxaborol-6-yl)-3-methyl-1-(3,3,3-trifluoropropyl)-1H-pyrazole-4-carboxamide]
CC50 at 3 days (MRC5 cytotoxicity assay; Table 4): > 64 µM
CC50 at 3 days (PMM cytotoxicity assay; Table 4): > 64 µM
EC50 (L. infantum; [4]): 5.7 µM

Cc1nn(C2CCC2)cc1C(=O)Nc1ccc2c(c1)B(O)OC2 [Compound 8, Cyclobutyl-N-(1-hydroxy-1,3-dihydrobenzo[c][1,2]oxaborol-6-yl)-3-methyl-1H-pyrazole-4-carboxamide]
CC50 at 3 days (MRC5 cytotoxicity assay; Table 4): > 64 µM
CC50 at 3 days (PMM cytotoxicity assay; Table 4): > 64 µM
microsomal CLint at 2 h, 1 µM [1]: 57 µL/min/mg
microsomal CLint at 1 μM [2, 3]: < 11.9 µL/min/mg
EC50 (L. infantum; [4]): 16 µM

O=C(Nc1ccc2c(c1)B(O)OC2)c1cn(C2CCC2)nc1C(F)(F)F [Compound 9, 1-Cyclobutyl-N-(1-hydroxy-1,3-dihydrobenzo[c][1,2]oxaborol-6-yl)-3-(trifluoromethyl)-1H-pyrazole-4-carboxamide]
CC50 at 72 h (MRC5 cytotoxicity assay; Table 4): 26 µM
CC50 at 72 h (PMM cytotoxicity assay; Table 4): 32 µM
microsomal CLint at 2 h, 1 µM [1]: 337 µL/min/mg
microsomal CLint at 1 μM [2, 3]: < 11.9 µL/min/mg
EC50 (L. infantum; [4]): 0.59 µM

O=C(Nc1ccc2c(c1)B(O)OC2)c1cn(C2CCOCC2)nc1C(F)(F)F [Compound 10, N-(1-Hydroxy-1,3-dihydrobenzo[c][1,2]oxaborol-6-yl)-1-(tetrahydro-2H-pyran-4-yl)-3-(trifluoromethyl)-1H-pyrazole-4-carboxamide]
CC50 at 3 days (MRC5 cytotoxicity assay; Table 4): > 64 µM
CC50 at 3 days (PMM cytotoxicity assay; Table 4): > 64 µM
microsomal CLint at 2 h, 1 µM [1]: 109 µL/min/mg
microsomal CLint at 1 μM [2, 3]: < 11.9 µL/min/mg
EC50 (L. infantum; [4]): 3 µM

Cc1nn(-c2ccccn2)cc1C(=O)Nc1ccc2c(c1)B(O)OC2 [Compound 11, N-(1-Hydroxy-1,3-dihydro-2,1-benzoxaborol-6-yl)-3-methyl-1-(pyridine-2-yl)-1H-pyrazole-4-carboxamide]
CC50 at 3 days (MRC5 cytotoxicity assay; Table 4): > 64 µM
CC50 at 3 days (PMM cytotoxicity assay; Table 4): > 64 µM
microsomal CLint at 1 μM [2, 3]: < 11.9 µL/min/mg
EC50 (L. infantum; [4]): 5.7 µM

COc1ccccc1-n1cc(C(=O)Nc2ccc3c(c2)B(O)OC3)c(C)n1 [Compound 14, N-(1-Hydroxy-1,3-dihydro-2,1-benzoxaborol-6-yl)-1-(2-methoxyphenyl)-3-methyl-1H-pyrazole-4-carboxamide]
CC50 at 72 h (MRC5 cytotoxicity assay; Table 4): 15.7 µM
CC50 at 3 days (PMM cytotoxicity assay; Table 4): > 64 µM
EC50 (L. infantum; [4]): 2.2 µM

Cc1c(C(=O)Nc2ccc3c(c2)B(O)OC3)nnn1-c1ccccc1 [Compound 24, N-(1-Hydroxy-1,3-dihydrobenzo[c][1,2]oxaborol-6-yl)-5-methyl-1-phenyl-1H-1,2,3-triazole-4-carboxamide]
CC50 at 3 days (MRC5 cytotoxicity assay; Table 5): > 64 µM
CC50 at 3 days (PMM cytotoxicity assay; Table 5): > 64 µM
microsomal CLint at 1 μM ([2]; pH 7.4, Table 5, read-out: HLM Clint): < 11.9 µL/min/mg
EC50 (L. infantum; [5]): 37 µM

Cc1cccc(-n2nnc(C(=O)Nc3ccc4c(c3)B(O)OC4)c2C)n1 [Compound 26, N-(1-Hydroxy-1,3-dihydrobenzo[c][1,2]oxaborol-6-yl)-5-methyl-1-(6-methylpyridin-2-yl)-1H-1,2,3-triazole-4-carboxamide]
CC50 at 3 days (MRC5 cytotoxicity assay; Table 5): > 64 µM
CC50 at 3 days (PMM cytotoxicity assay; Table 5): > 64 µM
EC50 (L. infantum; [5]): 6.4 µM

Cc1c(C(=O)Nc2ccc3c(c2)B(O)OC3)nnn1-c1cccnc1 [Compound 27, N-(1-Hydroxy-1,3-dihydrobenzo[c][1,2]oxaborol-6-yl)-5-methyl-1-(pyridin-3-yl)-1H-1,2,3-triazole-4-carboxamide]
CC50 at 3 days (MRC5 cytotoxicity assay; Table 5): > 64 µM
CC50 at 3 days (PMM cytotoxicity assay; Table 5): > 64 µM
EC50 (L. infantum; [5]): 38 µM
